Data as given in patent EP1853270B1, “PHARMACEUTICAL COMPOSITIONS COMPRISING NEP-INHIBITORS, INHIBITORS OF THE ENDOGENOUS ENDOTHELIN PRODUCING SYSTEM AND DIURETICS” (Solvay Pharmaceuticals GmbH, priority 2005, dated 2006).

System: spontaneously hypertensive rat
Assay: Telemetric monitoring of blood pressure and heart rate in spontaneously hypertensive rats, compounds given via drinking water
Type: in vivo
Details: male SHR; for DBP: group mean change of 24 h mean diastolic blood pressure; for DBP / HR / SBP: day 23 (3 weeks of treatment) minus baseline (day 3), via drinking water, intended 10 mg/kg/day hydrochlorothiazide and/or 100 mg/kg/day daglutril, n=5 per group; for HR: group mean change of 24 h mean heart rate; for SBP: group mean change of 24 h mean systolic blood pressure; for effect on blood pressure: result in words, 3 weeks of treatment via drinking water, difference between groups significant (ANOVA, at least P<0.01)
Text: Male spontaneously hypertensive rats (= SHR, insulin resistant strain from Charles River; aged 6 months) were equipped with telemetry transmitters for continuous monitoring of blood pressure and heart rate (TA11PA-C40. DSI, USA). Telemetry transmitters for continuous monitoring of blood pressure, heart rate and locomotor activity (TA11PA-C40, Data Sciences, USA) were implanted intraabdominally under inhalative halothane anesthesia. A midline abdominal incision was made, and the abdominal aorta was visualized by removal of retroperitoneal fat and connective tissue. A ligature was placed caudal of the renal arteries, the aorta was punctured with a 22G needle, and the catheter was advanced into the aorta. The entry point was sealed with tissue adhesive (Vetbond, 3M, USA), the ligature was removed, and the abdominal incision was closed. Measurements of aortic pressure were taken every 5 minutes (= min) for 4 seconds (= s) each at a sampling rate of 500 Hz, and were corrected for the corresponding ambient pressure (ambient pressure monitor, C11 PR, Data Sciences, USA).
After 3 days of monitoring under baseline (untreated) conditions, animals received daglutril via the drinking water. The intended daily dose was 100 mg/kg/day of daglutril.
In a second experiment, rats were divided into two treatment groups receiving hydrochlorothiazide or hydrochlorothiazide + daglutril. Compounds were administered via the drinking water, and daily drug intake was measured by weighing the water bottles thrice weekly. Intended daily doses were 10 mg/kg/day of hydrochlorothiazide plus, in the combination group, 100 mg/kg/day of daglutril.
Concentrations of hydrochlorothiazide and daglutril in the drinking water were adjusted once per week, in order to ensure the intended daily intake of 10 and 100 mg/kg, respectively.
The blood pressure, heart rate and activity values, sampled in 5 min intervals by the Dataquest™ system, were used for calculation of individual 24 hours (= h) -means. These 24 h means were exported to Excel, and group mean values of systolic blood pressure (= SBP), diastolic blood pressure (= DBP), heart rate (= HR), and locomotor activity (= ACT) were calculated for the daglutril, hydrochlorothiazide and the hydrochlorothiazide + daglutril groups. For the statistical analysis, a baseline value (pre) was calculated from the last day prior to compound application (day 3), and effects of daglutril, hydrochlorothiazide and hydrochlorothiazide + daglutril were calculated in relation to this baseline value (day 23, i.e. after 3 weeks of treatment, minus baseline value). The statistical comparison was done by using univariate ANOVA at an error level of P<0.05.

Row | SMILES | DBP [mmHg] | HR [min⁻¹] | SBP [mmHg] | effect on blood pressure
1 | NS(=O)(=O)c1cc2c(cc1Cl)NCNS2(=O)=O [HCTZ, hydrochlorothiazide] | -7.7 | -4.5 | -11.3 | moderate decrease in blood pressure
2 | CCOC(=O)[C@H](CCc1ccccc1)CC1(C(=O)N[C@H]2CCc3ccccc3N(CC(=O)O)C2=O)CCCC1 [daglutril] | 2.0 | -6.0 | -0.3 | no effect on blood pressure
